This note sets out measurements from ChEMBL document CHEMBL1127689, “Novel 4-(aryloxy)tetrahydropyridine analogs of MPTP as monoamine oxidase A and B substrates” (J Med Chem, 1994).

The nature of the assay: Relative specificity for human MAO-A and bovine MAO-B.
Consider `CN1CC=C(Cc2ccccc2)CC1`, for which the Selectivity was 0.11.
Turning to `CN1CC=C(Oc2ccccc2)CC1`, the Selectivity amounted to 0.57.
Next, `CN1CC=C(Oc2ccc(C(C)(C)C)cc2)CC1`: 2.17; `CN1CC=C(Oc2ccc3ccccc3c2)CC1`: 2.21; `CN1CC=C(Cc2cccc3ccccc23)CC1`: 24.7.
The compound `CCCCc1ccc(OC2=CCN(C)CC2)cc1` gave a Selectivity of 1.54.
On to `CN1CC=C(Oc2cccc3ccccc23)CC1`, for which the Selectivity stood at 2.77.
As for `CN1CC=C(Cc2ccc3ccccc3c2)CC1`, the figure is 10.8; as for `CN1CC=C(Oc2ccc(-c3ccccc3)cc2)CC1`, 4.72.
Next, `CN1CC=C(c2ccccc2)CC1`: 0.27; `CN1CC=C(Oc2ccc(Cl)cc2Cl)CC1`: 2.47.
